According to US20150344457A1, “METHODS OF INHIBITING PRMT5” (EPIZYME, INC., priority 2012, published 2015):

Target: T1, PRMT5/MEP50 (Homo sapiens, UniProt O14744)
T1 construct: Expressed full-length human Flag-PRMT5/6His-MeP50 protein complex was purified; made in house; host or cells: Spodoptera frugiperda (SF9) insect cells, baculovirus (pDEST8)
Assay: PRMT5 Biochemical Assay (PRMT5/MEP50 enzyme assay on peptide substrate, 3H-SAM Flashplate)
Conditions: Table D-2; read-out: Biochemical IC50
From the text: S-adenosylmethionine (SAM), S-adenosylhomocysteine (SAH), bicine, KCl, Tween20, dimethylsulfoxide (DMSO), bovine skin gelatin (BSG), and Tris(2-carboxyethyl)phosphine hydrochloride solution (TCEP) were purchased from Sigma-Aldrich at the highest level of purity possible. ^3H-SAM was purchase from American Radiolabeled Chemicals with a specific activity of 80 Ci/mmol 384-well streptavidin Flashplates were purchased from PerkinElmer.
Peptide representative of human histone H4 residues 1-15 was synthesized with a C-terminal linker-affinity tag motif and a C-terminal amide cap by 21st Century Biochemicals. […] The sequence was Ac-[…][K-Biot]-amide (SEQ ID NO.:3).
Full-length human MEP50 (NM_024102) clone was amplified from a human testis cDNA library incorporating a 5′ sequence encoding a 6-histidine tag (MHHHHHH) (SEQ ID NO.:5) fused directly to Arg 2 of MEP50. The amplified genes were sublconed into pENTR/D/TEV (Life Technologies) and subsequently transferred by Gateway™ attL×attR recombination to pDEST8 baculvirus expression vector (Life Technologies).
Recombinant baculovirus and Baculovirus-Infected Insect Cells (BIIC) were generated according to Bac-to-Bac kit instructions (Life Technologies) and Wasilko, 2006, respectively. Protein over-expression was accomplished by infecting exponentially growing Spodoptera frugiperda (SF9) cell culture at 1.2×10^6 cell/ml with a 5000 fold dilution of BIIC stock. Infections were carried out at 27° C. for 72 hours, harvested by centrifugation, and stored at −80° C. for purification.
Flag-PRMT5/6His-MeP50 was eluted with 300 mM Imidazole in the same buffer. […] Reference: Wasilko, D. J. and S. E. Lee: “TIPS: titerless infected-cells preservation and scale-up” Bioprocess J., 5 (2006), pp. 29-32.
General Procedure for PRMT5/MEP50 Enzyme Assays on Peptide Substrates.
The assays were all performed in a buffer consisting of 20 mM Bicine (pH=7.6), 1 mM TCEP, 0.005% BSG, and 0.002% Tween20, prepared on the day of use. Compounds in 100% DMSO (1 ul) were spotted into a polypropylene 384-well V-bottom plates (Greiner) using a Platemate Plus outfitted with a 384-channel head (Thermo Scientific). DMSO (1 ul) was added to Columns 11, 12, 23, 24, rows A-H for the maximum signal control and 1 ul of SAH, a known product and inhibitor of PRMT5/MEP50, was added to columns 11, 12, 23, 24, rows I-P for the minimum signal control. A cocktail (40 ul) containing the PRMT5/MEP50 enzyme and the peptide was added by Multidrop Combi (Thermo-Fisher). The compounds were allowed to incubate with PRMT5/MEP50 for 30 min at 25 degrees Celsius, then a cocktail (10 ul) containing ^3H-SAM was added to initiate the reaction (final volume=51 ul). The final concentrations of the components were as follows: PRMT5/MEP50 was 4 nM, ^3H-SAM was 75 nM, peptide was 40 nM, SAH in the minimum signal control wells was 100 uM, and the DMSO concentration was 1%. The assays were stopped by the addition of non-radioactive SAM (10 ul) to a final concentration of 600 uM, which dilutes the ^3H-SAM to a level where its incorporation into the peptide substrate is no longer detectable. 50 ul of the reaction in the 384-well polypropylene plate was then transferred to a 384-well Flashplate and the biotinylated peptides were allowed to bind to the streptavidin surface for at least 1 hour before being washed three times with 0.1% Tween20 in a Biotek ELx405 plate washer. The plates were then read in a PerkinElmer TopCount plate reader to measure the quantity of ^3H-labeled peptide bound to the Flashplate surface, measured as disintegrations per minute (dpm) or alternatively, referred to as counts per minute (cpm).
where dpm=disintegrations per minute, cmpd=signal in assay well, and min and max are the respective minimum and maximum signal controls.
where top and bottom are the normally allowed to float, but may be fixed at 100 or 0 respectively in a 3-parameter fit.

T1 sequence (O14744 with tags, fused parts or gaps): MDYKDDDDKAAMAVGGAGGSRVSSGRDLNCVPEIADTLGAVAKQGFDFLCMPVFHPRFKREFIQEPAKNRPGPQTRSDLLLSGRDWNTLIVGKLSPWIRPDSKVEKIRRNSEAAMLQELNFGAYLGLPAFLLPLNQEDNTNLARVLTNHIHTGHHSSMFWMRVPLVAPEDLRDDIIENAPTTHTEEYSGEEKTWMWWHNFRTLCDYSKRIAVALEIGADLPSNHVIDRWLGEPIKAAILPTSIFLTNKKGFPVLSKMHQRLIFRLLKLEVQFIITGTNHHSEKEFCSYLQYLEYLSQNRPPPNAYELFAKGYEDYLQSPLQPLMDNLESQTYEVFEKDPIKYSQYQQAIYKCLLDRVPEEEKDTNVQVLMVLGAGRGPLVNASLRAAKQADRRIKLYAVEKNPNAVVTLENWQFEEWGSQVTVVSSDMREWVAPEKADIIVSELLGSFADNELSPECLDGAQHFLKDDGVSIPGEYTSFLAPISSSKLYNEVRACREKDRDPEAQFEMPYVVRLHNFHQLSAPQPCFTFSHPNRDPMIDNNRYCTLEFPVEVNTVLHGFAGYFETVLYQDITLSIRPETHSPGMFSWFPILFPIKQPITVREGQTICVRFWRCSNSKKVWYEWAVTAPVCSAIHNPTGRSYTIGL
T1 sequence (Q9BQA1 with tags, fused parts or gaps partner limits assumed): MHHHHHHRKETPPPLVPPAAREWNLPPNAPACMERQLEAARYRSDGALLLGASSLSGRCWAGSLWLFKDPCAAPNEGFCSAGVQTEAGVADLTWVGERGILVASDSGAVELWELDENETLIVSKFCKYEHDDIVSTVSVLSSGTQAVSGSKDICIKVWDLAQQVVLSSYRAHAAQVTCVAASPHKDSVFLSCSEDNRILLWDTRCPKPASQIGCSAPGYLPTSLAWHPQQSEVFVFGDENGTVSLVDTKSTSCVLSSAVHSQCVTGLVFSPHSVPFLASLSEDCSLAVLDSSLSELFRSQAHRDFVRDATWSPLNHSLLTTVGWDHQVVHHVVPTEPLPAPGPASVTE

| IC50 | SMILES |
| --- | --- |
| 0.101 to 1 µM | OC(COCc1cc(-c2ccc(Cl)cc2)no1)CN1CCc2ccccc2C1 (stereo not shown) [Compound D11] |
| 1 to 10 µM | OC(COc1cccc2ccc(N3CCOCC3)nc12)CN1CCc2ccccc2C1 (stereo not shown) [Compound D15] |
| 1 to 10 µM | OC(COc1ccccc1-c1ccno1)CN1CCc2ccccc2C1 (stereo not shown) [Compound D16] |
| 1 to 10 µM | OC(COc1ccc(OCc2ccccc2)cc1)CN1CCc2ccccc2C1 (stereo not shown) [Compound D19] |
| 1 to 10 µM | OC(COc1cccc(OCc2ccccc2)c1)CN1CCc2ccccc2C1 (stereo not shown) [Compound D20] |
| 1 to 10 µM | OC(COCc1ccc(CN2CCOCC2)cc1)CN1CCc2ccccc2C1 (stereo not shown) [Compound D46] |
| > 40 µM | CC1Cc2ccccc2CN1CC(O)COc1cccc(CNC2CCCC2)c1 (stereo not shown) [Compound D51] |
| > 40 µM | CC1CN(CC(O)COc2cccc(CNC3CCCC3)c2)Cc2ccccc21 (stereo not shown) [Compound D56] |
| 1 to 10 µM | OC(COc1cccc(C2=CCCCC2)c1)CN1CCc2ccccc2C1 (stereo not shown) [Compound D57] |
| 1 to 10 µM | COc1ccc(Cl)c(-c2cccc(OCC(O)CN3CCc4ccccc4C3)c2)c1 (stereo not shown) [Compound D64] |
| 1 to 10 µM | OC(COc1cccc(-c2cncc(F)c2)c1)CN1CCc2ccccc2C1 (stereo not shown) [Compound D76] |
| 1 to 10 µM | OC(COc1cccc(-c2ccccn2)c1)CN1CCc2ccccc2C1 (stereo not shown) [Compound D98] |
| 1 to 10 µM | CC1CN(CC(O)COc2cccc(-c3ccc4ncn(C)c4c3)c2)Cc2ccccc21 (stereo not shown) [Compound D101] |
| 1 to 10 µM | CC1Cc2ccccc2CN1CC(O)COc1cccc(-c2ccc3ncn(C)c3c2)c1 (stereo not shown) [Compound D122] |
| 1 to 10 µM | OC(COc1cccc(-c2cncnc2)c1)CN1CCc2ccccc2C1 (stereo not shown) [Compound D140] |
| 1 to 10 µM | O=C(Nc1cccc(OCC(O)CN2CCc3ccccc3C2)c1)c1cnco1 (stereo not shown) [Compound D158] |
| 1 to 10 µM | O=C(Nc1cccc(OCC(O)CN2CCc3ccccc3C2)c1)c1cocn1 (stereo not shown) [Compound D159] |
| 1 to 10 µM | OC(COC1CCN(c2ccccc2)C1)CN1CCc2ccccc2C1 (stereo not shown) [Compound D175] |
| > 40 µM | Cn1cnc2ccc(-c3cccc(OCC(O)CN4CCc5ccccc5C4COc4ccccc4)c3)cc21 (stereo not shown) [Compound D178] |
| 1 to 10 µM | OC(COc1cccc(-c2ccncc2F)c1)CN1CCc2ccccc2C1 (stereo not shown) [Compound D190] |

Continued, compound first:

| SMILES | IC50 |
| --- | --- |
| OC(COc1ccccc1C1CCCCC1)CN1CCc2ccccc2C1 (stereo not shown) [Compound D8] | 1 to 10 µM |
| OC(COc1ccc(Cc2ccccc2)cc1)CN1CCc2ccccc2C1 (stereo not shown) [Compound D10] | 0.101 to 1 µM |
| OC(COc1cccc(CNC2CCNCC2)c1)CN1CCc2ccccc2C1 (stereo not shown) [Compound D13] | 1 to 10 µM |
| OC(COc1cccc(CN2CCCCC2)c1)CN1CCc2ccccc2C1 (stereo not shown) [Compound D14] | 1 to 10 µM |
| Cc1cc(OCC(O)CN2CCc3ccccc3C2)c(C)cc1CN1CCOCC1 (stereo not shown) [Compound D17] | 0.101 to 1 µM |
| OC(COC1CCN(Cc2ccccc2)C1)CN1CCc2ccccc2C1 (stereo not shown) [Compound D35] | 1 to 10 µM |
| OC(CCc1cccc(CNC2CCCC2)c1)CN1CCc2ccccc2C1 (stereo not shown) [Compound D36] | 10 to 40 µM |
| COc1ccc(Cn2nccc2-c2ccc(OC[C@@H](O)CN3CCc4ccccc4C3)cc2)cc1 [Compound D38] | > 40 µM |
| OC(COc1cccc(-c2cccnc2)c1)CN1CCc2ccccc2C1 (stereo not shown) [Compound D40] | 1 to 10 µM |
| Cn1cc(-c2cccc(OCC(O)CN3CCc4ccccc4C3)c2)cn1 (stereo not shown) [Compound D44] | 1 to 10 µM |
| OC(COc1ccc(-c2ccn[nH]2)cc1)CN1CCc2ccccc2C1 (stereo not shown) [Compound D48] | 1 to 10 µM |
| CC1c2ccccc2CCN1CC(O)COc1cccc(CNC2CCCC2)c1 (stereo not shown) [Compound D50] | 1 to 10 µM |
| OC(COc1cccc(C2CCCCC2)c1)CN1CCc2ccccc2C1 (stereo not shown) [Compound D52] | 1 to 10 µM |
| COc1cccc2c1CCN(CC(O)COc1cccc(CNC3CCCC3)c1)C2 (stereo not shown) [Compound D54] | > 40 µM |
| OC(COc1cccc(-c2cccc(Oc3ccccc3)c2)c1)CN1CCc2ccccc2C1 (stereo not shown) [Compound D55] | 1 to 10 µM |
| CN(C)S(=O)(=O)c1cccc(-c2cccc(OCC(O)CN3CCc4ccccc4C3)c2)c1 (stereo not shown) [Compound D61] | > 40 µM |
| Cn1cnc2ccc(N3CCCC(OCC(O)CN4CCc5ccccc5C4)C3)cc21 (stereo not shown) [Compound D66] | 0.101 to 1 µM |
| OC(COc1cccc(-c2ccc(Cl)cc2)c1)CN1CCc2ccccc2C1 (stereo not shown) [Compound D69] | 1 to 10 µM |
| Oc1ccc(-c2cccc(OCC(O)CN3CCc4ccccc4C3)c2)cc1F (stereo not shown) [Compound D70] | 1 to 10 µM |
| COc1ccccc1-c1cccc(OCC(O)CN2CCc3ccccc3C2)c1 (stereo not shown) [Compound D71] | 1 to 10 µM |
| OCc1ccc(-c2cccc(OCC(O)CN3CCc4ccccc4C3)c2)cc1 (stereo not shown) [Compound D73] | 1 to 10 µM |
| OC(COc1cccc(-c2ccc(F)cc2)c1)CN1CCc2ccccc2C1 (stereo not shown) [Compound D77] | 1 to 10 µM |

| SMILES | IC50 |
| --- | --- |
| Cc1ccc(-c2cccc(OCC(O)CN3CCc4ccccc4C3)c2)cn1 (stereo not shown) [Compound D78] | 1 to 10 µM |
| O=C(NC1CCOCC1)c1cccc(NCC(O)CN2CCc3ccccc3C2)c1 (stereo not shown) [Compound D79] | 10 to 40 µM |
| OC(COc1cccc(-c2cccc(C(F)(F)F)c2)c1)CN1CCc2ccccc2C1 (stereo not shown) [Compound D87] | 1 to 10 µM |
| OC(COc1cccc(-c2cccc(Cl)c2)c1)CN1CCc2ccccc2C1 (stereo not shown) [Compound D91] | 1 to 10 µM |
| Oc1ccc(-c2cccc(OCC(O)CN3CCc4ccccc4C3)c2)cc1 (stereo not shown) [Compound D96] | 1 to 10 µM |
| OC(COc1cccc(-c2ccncc2)c1)CN1CCc2ccccc2C1 (stereo not shown) [Compound D97] | 1 to 10 µM |
| CN(CC(O)CN1CCc2ccccc2C1)c1cccc(C(=O)NC2CCOCC2)c1 (stereo not shown) [Compound D99] | 10 to 40 µM |
| COc1cccc2c1CN(CC(O)COc1cccc(-c3ccc4ncn(C)c4c3)c1)CC2 (stereo not shown) [Compound D100] | 1 to 10 µM |
| Cn1cc2cc(-c3cccc(OCC(O)CN4CCc5ccccc5C4)c3)ccc2n1 (stereo not shown) [Compound D115] | 1 to 10 µM |
| Cn1cnc2ccc(-c3nccc(NCC(O)CN4CCc5ccccc5C4)n3)cc21 (stereo not shown) [Compound D120] | 1 to 10 µM |
| OC(COc1cccc(-c2cc(Cl)cc(C(F)(F)F)c2)c1)CN1CCc2ccccc2C1 (stereo not shown) [Compound D128] | 1 to 10 µM |
| OC(COc1cccc(-c2ccc(C(F)(F)F)cc2)c1)CN1CCc2ccccc2C1 (stereo not shown) [Compound D133] | 1 to 10 µM |
| COc1cccc2c1CCN(CC(O)COc1cccc(-c3ccc4ncn(C)c4c3)c1)C2 (stereo not shown) [Compound D142] | 1 to 10 µM |
| Cn1cnc2ccc(-c3cccc(OCC(O)CN4CCc5ccccc5C4Cc4ccccc4)c3)cc21 (stereo not shown) [Compound D143] | > 40 µM |
| CCOC(=O)CC1c2ccccc2CCN1CC(O)COc1cccc(-c2ccc3ncn(C)c3c2)c1 (stereo not shown) [Compound D144] | 1 to 10 µM |
| COc1cc2c(cc1OC)CN(CC(O)COc1cccc(-c3ccc4ncn(C)c4c3)c1)CC2 (stereo not shown) [Compound D146] | > 40 µM |
| COc1ncc(-c2cccc(OCC(O)CN3CCc4ccccc4C3)c2)cn1 (stereo not shown) [Compound D153] | 1 to 10 µM |
| OC(COc1cccc(-c2cnccn2)c1)CN1CCc2ccccc2C1 (stereo not shown) [Compound D155] | 1 to 10 µM |
| Cn1cnc2nc(-c3cccc(OCC(O)CN4CCc5ccccc5C4)c3)ncc21 (stereo not shown) [Compound D165] | 1 to 10 µM |
| COc1ccc2c(c1)CN(CC(O)COc1cccc(-c3ccc4ncn(C)c4c3)c1)CC2 (stereo not shown) [Compound D177] | 10 to 40 µM |
| O=C(c1cncc(-c2cccc(OCC(O)CN3CCc4ccccc4C3)c2)c1)N1CCCC1 (stereo not shown) [Compound D181] | 1 to 10 µM |
| O=C(Nc1cccc(OCC(O)CN2CCc3ccccc3C2)c1)c1ccnnc1 (stereo not shown) [Compound D184] | 1 to 10 µM |
